Test results reported in patent US12616692B2, “Method of achieving HIV viral remission using long-acting antiretroviral agents” (ViiV Healthcare Company, priority 2020, dated 2026).

Columns and labels:
HIV = settings: cited from earlier work
[1] = rhesus monkey, in vivo
[2] = 50 mg/kg CAB LA, 200 mg/kg RPV intramuscularly once a month; cited from earlier work

Structure (SMILES) | Protein-adjusted concentration required for 90% viral inhibition (HIV) [µg/mL] | Time after the last dose over which plasma concentration declined to undetectable levels (remained detected) [1] | Plasma concentration relative to protein-adjusted concentration required for 90% viral inhibition [2]
C[C@H]1CO[C@@H]2Cn3cc(C(=O)NCc4ccc(F)cc4F)c(=O)c(O)c3C(=O)N12 [CAB, cabotegravir] | 0.166 | 4-7 months | well above
Cc1cc(/C=C/C#N)cc(C)c1Nc1ccnc(Nc2ccc(C#N)cc2)n1 [RPV, rilpivirine] |  | 4-7 months | well above
